Test results as given in patent EP0408749A1, “DERIVATIVES OF 3,18-DIHYDROXY-9,13-EPOXYLABDANE, METHOD OF OBTAINING THEM AND A HEMOSTATIC PHARMACEUTICAL PREPARATION BASED THEREON” (TASHKENTSKY GOSUDARSTVENNY UNIVERSITET IMENI V.I. LENINA, priority 1988, dated 1990).
Counter-ions that a name gives are not always drawn.

Tests used:
blood coagulation [1] = experiment: Thromboelastogram in dogs after administration of the compound; assay type: in vivo; conditions: dog, 25 mg/kg; for Time of reaction of blood coagulation, R / Time of the clot formation K: arithmetic mean M; for Time of reaction of blood coagulation, R: 10 animals, initial 23.0; for Time of the clot formation K: initial 20.0
Procedure: (§1) The pharmacological studies of the hemostatic activity of the compounds according to the present invention was conducted in vivo and in vitro with the use of biochemical tests and by means of a thromboelasto- graph.
(§2) The blood for examination was taken from an opened dog's thigh vein prior to administration of the compound and 10, 30, 60, 90 and 120 min thereafter. For the cuvette of the thromboelasto- graph the blood was taken in the amount of 0.36 ml, while for biochemical tests -up to 10 ml (as the con- servant use was made of a 1.34% solution of sodium oxalate which was added in the ratio of 1:9).
The next series of experiments - administration of the compound according to the present invention in the dose of 25 mg/kg of the animals' bodymass.

blood coagulation [2] = experiment: Thromboelastogram in vitro; assay type: biochemical; conditions: for Time of the reaction of blood coagulation, R / Coagulation index, C: in vitro, experiment (O)
Procedure: as §1
The effect of the compound according to the present invention , viz. 3,1,18-trihydroxy-9,13-epofil- abdan-15-ic acid sodium salt trihydrate on hemostasis was studied in vitro with the use of a thromboelastogram.

blood coagulation system [3] = experiment: Biochemical tests of the blood coagulation system in dogs, intravenous; assay type: in vivo; conditions: dog, 25 mg/kg intravenously; for Time of blood coagulation / Tolerance of the plasma to heparin / Trombin time / Time of plasma recalcification: mean M; for Time of blood coagulation: 10 animals, initial 5.1; for Tolerance of the plasma to heparin: initial 6.8; for Trombin time: initial 17.0; for Time of plasma recalcification: initial 117.0
Procedure: as §1, §2
In another series of experiments the effect of the compound according to the present invention was studied in biochemical tests.

local blood hemorrhage = experiment: Local blood hemorrhage, local application; assay type: in vivo; conditions: local effect, concentration of 0.5%
Text: The study of the effect provided by the compound according to the present invention on the local blood hemorrhage has shown that the local effect of the compound in tne concentration of 0.5% lowers the flood loss by 83% and the hemorrhage duration is reduced by 60%.

thrombocytes = experiment: Effect on thrombocytes
Text: Furthermore, the compound according to the present invention increases the number of thrombocytes and activates adhesion and aggregation of thrombocytes.

heparin = experiment: Effect on heparin
white non-descipt mice = experiment: Acute toxicity, intraperitoneal; assay type: in vivo
Procedure: The compound according to the present invention, i.e. 3,16,18-trihydroxy-3,13-epoxylabdan-15-ic acid sodium salt trihydrate was tested for an acute toxicity.

rats, dogs = conditions: in vivo
blood coagulation [4] = experiment: Thromboelastogram in dogs after administration of the compound; assay type: in vivo; conditions: 10 mg/kg
hemostatic effect [5] = conditions: prior art statement; cited from earlier work
hemostatic effect [6] = conditions: after administration to patients; cited from earlier work
blood coagulation [7] = experiment: Blood coagulation in dogs after hypodermal administration of a 20% oily solution; assay type: in vivo; conditions: 50 mg/kg hypodermally; for Time of blood coagulation / Fibrinolytic activity of blood / Time of plasma recalcification / Tolerance of plasma to heparin / Fibrinogen: mean M; for Time of blood coagulation: prior 318.0; for Fibrinolytic activity of blood: prior 41.0; for Time of plasma recalcification: prior 106.0; for Tolerance of plasma to heparin: prior 214.0; for Fibrinogen: prior 435.0
Procedure: as §1
[…] For the cuvette of the thromboelasto- graph the blood was taken in the amount of 0.36 ml, while for biochemical tests -up to 10 ml (as the con- servant use was made of a 1.34% solution of sodium oxalate which was added in the ratio of 1:9).
The compound according to the invention , viz. ? 3,18-dihydroxy-9,13-epoxylabdan-15-16-olide was administered to dogs (a group of 5 animals) in the dose of 50 mg/kg of the animal's bodymass hypodermally as a 20% oily solution.

mice = experiment: LD50, subcutaneous 20% oily solution; assay type: in vivo; conditions: subcutaneously (hypodermal)
Procedure: The LD50 was determined on mice (a group of 30 animals with. a bodymass of 20-21 g). The mice were administered with 3,18-dihydroxy-9,13-epoxylabdan-15,16-olide subcutaneously (a 20% oily solution). In the case of this manner of administration (i.e. hypodermal one) the LD50 was equal to more than 2,000 mg/kg of the animal's bodymass.

blood coagulation system [8] = experiment: Comparative clinical study of hemostatic effect against dicynone; assay type: in vivo; conditions: twenty post-operation patients, 20 minutes after introduction, p < 0.05
Procedure: The pharmaceutical preparation according to the present invention and dicynone were subjected to a comparative study for their hemostatic effect. Twenty post-operation patients (cardiorevivification department). The preparations were administered in the amount of […]. For the determination of the hemostatic effect determined by the functional state of the blood coagulation system the following characteristics were studied: thromboelastogram, the time of recalcification of citrate plasma and the plasma tolerance towards heparin. 20 minutes after the introduction of dicynone the parameter of the time of reaction of the rate of formation of thromboplastin was decreased by 32%, after administration of the preparation according to the present invention - by 75%, the time of coagulation was reduced, respectively, by 2'1 and 43%, t,ie time of recalcification of plasma decreased by 43 and 61% respectively, tolerance of plasma to heparin increased by 36 and 52%, respectively (at an error of p < 0.05).

[9] = 30 minutes after administration
[10] = 60 minutes after administration
[11] = 90 minutes after administration
[12] = 120 minutes after administration

3,16,18-trihydroxy-9,13-epoxylabdan-15-ic acid sodium salt trihydrate
coagulation time K is reduced by (blood coagulation [1]): 40-55% | factor C (coagulation index) increased by (blood coagulation [1]): 71-133% | Time of reaction of blood coagulation, R (blood coagulation [1]; column 2 (30 min by the note to Table 3)): 10.0 mm | Time of reaction of blood coagulation, R (blood coagulation [1]; column 3 (60 min by the note to Table 3)): 12.0 mm | Time of reaction of blood coagulation, R (blood coagulation [1]; column 4 (90 min by the note to Table 3)): 9.0 mm | Time of reaction of blood coagulation, R (blood coagulation [1]; column 5 (120 min by the note to Table 3)): 11.0 mm | Time of the clot formation K (blood coagulation [1]; fifth value column (120 min by the note to Table 3)): 9.0 mm | Time of the clot formation K (blood coagulation [1]; fourth value column (90 min by the note to Table 3)): 10.0 mm | Time of the clot formation K (blood coagulation [1]; second value column (30 min by the note to Table 3)): 12.0 mm | Time of the clot formation K (blood coagulation [1]; third value column (60 min by the note to Table 3)): 11.0 mm | Time of the reaction of blood coagulation, R (blood coagulation [2]; 0.01 mg, control 26.0): 7.0 mm | Time of the reaction of blood coagulation, R (blood coagulation [2]; 0.1 mg, control 11.0): 8.0 mm | Coagulation index, C (blood coagulation [2]; 0.1 mg, control 19.6): 20.8 mm | Coagulation index, C (blood coagulation [2]; 1 mg, control 23.0): 8.0 mm | Time of the reaction of blood coagulation, R (blood coagulation [2]; 5 mg, control 18.0): 32.0 mm | Coagulation index, C (blood coagulation [2]; 5 mg, control 19.0): 3.4 mm | parameter R (the time of reaction of blood coagulation) (blood coagulation [2]; in vitro, 0.01, 0.1, 0.2 and 1.0 mg per 0.26 ml of blood): substantially reduces | blood coagulation time is shortened by (blood coagulation system [3]): 35-40% | thrombin time is reduced by (blood coagulation system [3]): 30-35% | time of plasma recalcification shortened by (blood coagulation system [3]): 33-39% | tolerance of plasma to heparin is increased by (blood coagulation system [3]): 30-40% | Time of blood coagulation (blood coagulation system [3]; [9]): 3.9 min | Time of blood coagulation (blood coagulation system [3]; [10]): 3.7 min | Time of blood coagulation (blood coagulation system [3]; [11]): 3.0 min | Time of blood coagulation (blood coagulation system [3]; [12]): 3.4 min | Tolerance of the plasma to heparin (blood coagulation system [3]; [9]): 4,8 min | Trombin time (blood coagulation system [3]; [9]): 12.0 s | Time of plasma recalcification (blood coagulation system [3]; [9]): 78.0 s | Tolerance of the plasma to heparin (blood coagulation system [3]; [10]): 4.6 min | Trombin time (blood coagulation system [3]; [10]): 12.0 s | Time of plasma recalcification (blood coagulation system [3]; [10]): 79.0 s | Tolerance of the plasma to heparin (blood coagulation system [3]; [11]): 4.3 min | Trombin time (blood coagulation system [3]; [11]): 11.0 s | Time of plasma recalcification (blood coagulation system [3]; [11]): 74.0 s | Tolerance of the plasma to heparin (blood coagulation system [3]; [12]): 4.1 min | Trombin time (blood coagulation system [3]; [12]): 11.0 s | Time of plasma recalcification (blood coagulation system [3]; [12]): 71.0 s | hemorrhage duration is reduced by (local blood hemorrhage): 60% | lowers the flood loss by (local blood hemorrhage): 83% | adhesion and aggregation of thrombocytes (thrombocytes): activates | number of thrombocytes (thrombocytes): increases | effect on heparin (heparin): did not prevent the effect of heparin but weakened it | LD50 (white non-descipt mice; intraperitoneal administration): over 2,000 mg/kg of the animal's bodymass | death of the animals (white non-descipt mice; intraperitoneal, 1,000 and 2,000 mg/kg): no death | local irritation effect (rats, dogs): neither provided any local irritation effect | process of blood coagulation (blood coagulation [4]): promoted

3, 15, 16, 18-tetrahydroxy-9,13-epoxylabdane
hemostatic effect (hemostatic effect [5]): weak

CC1(S(=O)(=O)[O-])CC(=O)c2ccccc2C1=O.[Na+] (stereo not shown) [sodium 2,3-dihydro-2-methyl-1,4-naphthoquinone-2-sulphonate]
hemostatic effect is noted within (hemostatic effect [6]): 12 to 18 h

3,18-dihydroxy-9,13-epoxylabdan-15,16-olide
blood coagulation time decreases by (blood coagulation [7]; 20% oily solution): 51% | time of recalcification decreases by (blood coagulation [7]; 20% oily solution): 32% | tolerance of the plasma to heparin was increased by (blood coagulation [7]; 20% oily solution): 37% | Time of blood coagulation (blood coagulation [7]; 20% oily solution, 60 min after administration): 269.0 s | Time of blood coagulation (blood coagulation [7]; 20% oily solution, 120 min after administration): 218.0 s | Time of blood coagulation (blood coagulation [7]; 20% oily solution, 180 min after administration): 159.0 s | Fibrinolytic activity of blood (blood coagulation [7]; 60 min after administration): 53.0% | Time of plasma recalcification (blood coagulation [7]; 60 min after administration): 102.0 s | Tolerance of plasma to heparin (blood coagulation [7]; 60 min after administration): 192.0 s | Fibrinogen (blood coagulation [7]; 60 min after administration): 387.0 mg% | Fibrinolytic activity of blood (blood coagulation [7]; 120 min after administration): 54.0% | Time of plasma recalcification (blood coagulation [7]; 120 min after administration): 84.0 s | Tolerance of plasma to heparin (blood coagulation [7]; 120 min after administration): 138.0 s | Fibrinogen (blood coagulation [7]; 120 min after administration): 361.0 mg% | Fibrinolytic activity of blood (blood coagulation [7]; 180 min after administration): 43.0% | Time of plasma recalcification (blood coagulation [7]; 180 min after administration): 72.0 s | Tolerance of plasma to heparin (blood coagulation [7]; 180 min after administration): 135.0 s | Fibrinogen (blood coagulation [7]; 180 min after administration): 293.0 mg% | LD50 (mice): more than 2,000 mg/kg of the animal's bodymass

O=S(=O)(O)c1cc(O)ccc1O [dicynone, 2,5-dihydroxybenzenesulphonate-j-diethylammonium salt]
time of recalcification of plasma decreased by (blood coagulation system [8]): 43% | tolerance of plasma to heparin increased by (blood coagulation system [8]): 36% | time of reaction of the rate of formation of thromboplastin decreased by (blood coagulation system [8]; amount of 75 g as printed): 32%
